According to patent publication US20080015147A1, “Method for inhibiting neuronal cell death” (priority 2006, published 2008):
“Also recorded” adds a separate entry of the source.

Assays:
catalase = assay: Catalase assay on pH treated cells; format: cell-based, mouse
Method: A catalase assay was performed on the pH treated cells in order to determine whether TCAP-1 was conferring survivability to the cells via upregulation of catalase and thus increasing H2O 2 breakdown into H2O and O2 (FIG. 9B). […] Bovine liver was also assayed as a positive control.

[1] = test system: N38 cells immortalized mouse hypothalamic cell line; assay: Cell morphology analysis (small round necrotic cells); format: cell-based; conditions: for number of small round (necrotic) cells, vehicle vs TCAP-treated: 48 hrs; for number of rounded cells relative to vehicle: 72 hrs
Method: The effect of TCAP-1 on cell morphology was conducted using the N38 cells immortalized mouse hypothalamic cell line(Belsham et al, 2004). Cells were grown in six-well culture plate with 2 ml of Dulbeco's Modified Eagle Medium (DMEM) with high glucose, […], 25 mM HEPES buffer, pyridoxine hydrochloride in the absence of sodium pyruvate, 5 ml penicillin with 10% fetal bovine serum (FBS) at pH 7.4 (all from Gibco-Invitrogen, Burlington, Canada).
At 24 and 48 hrs, the medium was replaced with medium buffered at pH 6.8, 7.4, 8.0 or 8.4. Half of the cell groups received (2×10^−7 M) TCAP-1, whereas the other half received phosphate buffered saline (PBS) pH 7.4 containing 8 g NaCl, 0.2 g KCl, 1.4 g Na2HPO4, 0.2 g KH2PO4 in. 800 mL ddH2O. For all groups, 4 replicates were run. Digital pictures were taken at 24, 48 and 72 hrs using an Olympus IX&1 inverted microscope at a magnification of 200× and analyzed using LabWorks 4.0 Image Acquisition and Analysis software (UltraViolet Products Ltd).

Akt = Akt western blot; format: cell-based, mouse; conditions: all pH treatments; 48 hrs
Method: Western blots using Akt and phosphorylated Akt (P-Akt) primary antibodies were conducted on all conditions of the cultured N38 cells to determine whether TCAP was preventing cell death by phosphorylation. The same western blot procedure outlined above was repeated with an Akt primary antibody (Cell Signalling, Beverly) at a titer of 1:500, followed by membrane incubation with anti-rabbit HRP-conjugated secondary antibody (Amersham, Baie d'Urfé) at 1:3000, followed by exposure on Kodak X-OMAT Blue film (Perkin Elmer Canada Inc, Vaudreuil-Dorion) for 30 min. Phospho Akt expression at 48 hrs was determined using the method described above with a PAkt primary antibody (Cell Signalling 9271) at 1:1000 followed by membrane incubation with anti-rabbit HRP-conjugated secondary antibody (Amersham, Baie d'Urfé) at 1:2000 followed by exposure on Kodak X-OMAT Blue film (Perkin Elmer Canada Inc, Vaudreuil-Dorion) overnight. Cultured N38 cells were serum-starved for 48 hours in order to induce phosphorylation and following the same protocol above were loaded as a control. Total optical density of the blots, were quantified using LabWorks 4.0 Image Acquisition and Analysis Software from Ultra-Violet Products Ltd. (UVP).

superoxide dismutase = assay: Superoxide dismutase gene expression by real-time PCR; format: cell-based, mouse; conditions: p<0.01
N38 cells [2] = assay: Fluorescent microscopy of necrosis and apoptosis markers; format: cell-based, mouse; conditions: 48 hrs
Method: N38 cells were cultured on poly-D-Lysine treated coverslips (VWR, Mississauga) in each of the four pH condition, and cells were washed twice with PBS, each fluorochrome was added to each well: 5 μl Fluorescein (FITC)-Annexin V in Tris EDTA buffer containing 0.1% BSA (Bovine serum albumin) and 0.1% NaN3, pH 7.5, 5 μl rhodamine EtD-III 200 μM in PBS and 5 μl 4′,6-Diamidino-2-phenylindole (DAPI) Hoechst 33342 5 μg/mL in PBS (Biotium, Inc. Hayward). The samples were incubated in the dark for 15 min, then washed before being placed on slides. The cells were viewed under a Leica DM4500 inverted fluorescent microscope and digitally analyzed using OpenLab software.
Annexin V labelled with fluorescein (FITC) was used to identify apoptotic cells in green. Ethidium homodimer III (EtD-III) is a positively charged nucleic acid probe, which is impermeable to live or apoptotic cells but stains necrotic cells with red fluorescence (rhodamine) and Hoechst 3342 (4′,6-Diamidino-2-phenylindole) (DAPI) emits bright blue fluorescence upon binding to DNA in living cells.

N38 cells [3] = assay: MTT assay (mitochondrial activity); format: cell-based, mouse; conditions: for MTT activity (optical density): 48 hrs, 2×10^−7 M
Method: The effect of TCAP-1 on cell proliferation at each pH was examined by direct counts using a hemocytometer and indirectly by assessing mitochondrial activity using a colorimetric MTT (3-[4,5-dimethylthiazol-2-yl]-2,5-diphenyl tetrazolium bromide) assay on cultured N38 cells. For hemocytometer counts, the cultures were incubated for 24 and 48 hrs. The cells were suspended using 1 ml of 0.25% Trypsin with EDTA (Gibco-Invitrogen, Burlington, Canada), centrifuged at 1600 RPM for 4 min, and resuspended with PBS. The cells in 50 μl aliquots were vortexed and counted on a hemocytometer.
A (3-4,5-dimethylthiazol-2-yl]-2,5-diphenyl tetrazolium bromide) MTT assay was conducted using the In Vitro Toxicology Assay Kit: MTT based (Sigma, St. Louis). The cells were cultured for the MTT assay at 24 and 48 hours and were incubated at 37° C. in 5% CO2 for 3 hrs in the presence of MTT 200 μl/2 ml medium. The samples were mixed by shaking the plate horizontally for 30 min. The background absorbance of the multi-well plates was determined at 690 nm and subtracted from the 570 nm measurement.

Substance: teneurin C-terminus associated peptide [TCAP-1]
- catalase levels vs vehicle (catalase; pH 6.8): no significant effects
- catalase levels vs vehicle (catalase; pH 7.4): no significant effects
- catalase levels vs vehicle (catalase; pH 8.0, p<0.01): significant TCAP-1 effect
- catalase levels vs vehicle (catalase; pH 8.4, p<0.001): significantly increased catalase levels
- number of small round (necrotic) cells, vehicle vs TCAP-treated ([1]; pH 6.8, p<0.05): significant increase in the number of small round cell types (necrotic cells) in the vehicle-treated cultures
- observable morphological changes ([1]; pH 7.4, TCAP-1 2×10^−7 M): did not induce any observable morphological changes
- number of small round (necrotic) cells, vehicle vs TCAP-treated ([1]; pH 8.0, p<0.001): significant increase in the number of small round cell types (necrotic cells) in the vehicle-treated cultures
- number of rounded cells relative to vehicle ([1]; pH 8.0, p<0.001): significantly decreased the number of rounded cells
- number of small round (necrotic) cells, vehicle vs TCAP-treated ([1]; pH 8.4, p<0.001): significant increase in the number of small round cell types (necrotic cells) in the vehicle-treated cultures
- number of rounded cells relative to vehicle ([1]; pH 8.4, p<0.001): significantly decreased the number of rounded cells
- endogenous Akt on western blot, vehicle vs TCAP (Akt): no difference in endogenous Akt
- superoxide dismutase gene expression vs vehicle (superoxide dismutase; pH 7.4): increase over the vehicle treated cells
- superoxide dismutase gene expression vs vehicle (superoxide dismutase; pH 8.4): increase over the vehicle treated cells
- number of rhodamine-fluorescing (necrotic) cells (N38 cells [2]; pH 6.8): decreased the number of rhodamine-fluorescing cells
- number of rhodamine-fluorescing (necrotic) cells (N38 cells [2]; pH 6.8, listed as TCAP): significantly decreased the amount of necrotic cells
- number of rhodamine-fluorescing (necrotic) cells (N38 cells [2]; pH 8.0): decreased the number of rhodamine-fluorescing cells
- number of rhodamine-fluorescing (necrotic) cells (N38 cells [2]; pH 8.0, listed as TCAP): significantly decreased the amount of necrotic cells
- number of rhodamine-fluorescing (necrotic) cells (N38 cells [2]; pH 8.4): decreased the number of rhodamine-fluorescing cells
- number of rhodamine-fluorescing (necrotic) cells (N38 cells [2]; pH 8.4, listed as TCAP): significantly decreased the amount of necrotic cells
- MTT activity (N38 cells [3]; pH 6.8): did not induce a significant effect on MTT activity
- MTT activity (N38 cells [3]; pH 7.4): did not induce a significant effect on MTT activity
- MTT activity (optical density) (N38 cells [3]; pH 8.0): significant increase in optical density; also recorded: increased the number of viable cells
- MTT activity (optical density) (N38 cells [3]; pH 8.4): significant increase in optical density; also recorded: increased the number of viable cells
